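Grown in 96-well plates, cells were treated for 48 hours with each compound at five concentrations. Insufficient inhibition: endpoint recorded as highest concentration tested. TGI: concentration producing complete growth inhibition.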
Experiments:
Assay in all cases: inhibition of tumour cell growth, NCI panel, 48 h
OVCAR-8 ovarian = tested on: OVCAR-8 ovarian
MALME-3M melanoma = tested on: MALME-3M melanoma
RXF-631 renal = tested on: RXF-631 renal
HCT-15 colon = tested on: HCT-15 colon
KM12 colon = tested on: KM12 colon
786-0 renal = tested on: 786-0 renal
M14 melanoma = tested on: M14 melanoma
DLD-1 colon = tested on: DLD-1 colon
HL-60(TB) leukemia = tested on: HL-60(TB) leukemia
A498 renal = tested on: A498 renal
SK-MEL-2 melanoma = tested on: SK-MEL-2 melanoma
KM20L2 colon = tested on: KM20L2 colon
RXF 393 renal = tested on: RXF 393 renal
CCRF-CEM leukemia = tested on: CCRF-CEM leukemia
SK-MEL-5 melanoma = tested on: SK-MEL-5 melanoma
OVCAR-3 ovarian = tested on: OVCAR-3 ovarian
XF 498 CNS = tested on: XF 498 CNS
LOX IMVI melanoma = tested on: LOX IMVI melanoma
NCI-H522 lung = tested on: NCI-H522 lung
U251 CNS = tested on: U251 CNS
UACC-257 melanoma = tested on: UACC-257 melanoma
DMS 273 small cell lung = tested on: DMS 273 small cell lung
DMS 114 small cell lung = tested on: DMS 114 small cell lung
LXFL 529 NSCLC = tested on: LXFL 529 NSCLC
SNB-75 CNS = tested on: SNB-75 CNS
HOP-18 NSCLC = tested on: HOP-18 NSCLC
IGROV1 ovarian = tested on: IGROV1 ovarian
HCC-2998 colon = tested on: HCC-2998 colon
HOP-62 NSCLC = tested on: HOP-62 NSCLC
SF-295 CNS = tested on: SF-295 CNS
SK-MEL-28 melanoma = tested on: SK-MEL-28 melanoma
OVCAR-5 ovarian = tested on: OVCAR-5 ovarian
EKVX NSCLC = tested on: EKVX NSCLC
HT29 colon = tested on: HT29 colon
M19-MEL melanoma = tested on: M19-MEL melanoma
UACC-62 melanoma = tested on: UACC-62 melanoma
ACHN renal = tested on: ACHN renal
UO-31 renal = tested on: UO-31 renal
SNB-78 CNS = tested on: SNB-78 CNS
NCI-H460 lung = tested on: NCI-H460 lung
SN12C renal = tested on: SN12C renal
HCT-116 colon = tested on: HCT-116 colon
SF-268 CNS = tested on: SF-268 CNS
CAKI-1 renal = tested on: CAKI-1 renal
SR leukemia = tested on: SR leukemia
COLO 205 colon = tested on: COLO 205 colon
A549 NSCLC = tested on: A549 NSCLC
HOP-92 NSCLC = tested on: HOP-92 NSCLC
SNB-19 CNS = tested on: SNB-19 CNS
K-562 leukemia = tested on: K-562 leukemia
NCI-H226 lung = tested on: NCI-H226 lung
OVCAR-4 ovarian = tested on: OVCAR-4 ovarian
SK-OV-3 ovarian = tested on: SK-OV-3 ovarian
NCI-H23 lung = tested on: NCI-H23 lung
RPMI-8226 leukemia = tested on: RPMI-8226 leukemia
MOLT-4 leukemia = tested on: MOLT-4 leukemia
TK-10 renal = tested on: TK-10 renal
SW-620 colon = tested on: SW-620 colon
SF-539 CNS = tested on: SF-539 CNS

SMILES: CC1NOC(=O)C1N=Nc1ccccc1Br (configuration not stated)
- TGI (OVCAR-8 ovarian): 44.9 µM
- TGI (MALME-3M melanoma): 50.5 µM
- TGI (RXF-631 renal): > 100 µM
- TGI (HCT-15 colon): 84.8 µM
- TGI (KM12 colon): 44.8 µM
- TGI (786-0 renal): 39.8 µM
- TGI (M14 melanoma): 43.3 µM
- TGI (DLD-1 colon): > 100 µM
- TGI (HL-60(TB) leukemia): 40.8 µM
- TGI (A498 renal): 51.3 µM
- TGI (SK-MEL-2 melanoma): 36.7 µM
- TGI (KM20L2 colon): > 100 µM
- TGI (RXF 393 renal): 32 µM
- TGI (CCRF-CEM leukemia): 74.2 µM
- TGI (SK-MEL-5 melanoma): 29.1 µM
- TGI (OVCAR-3 ovarian): 43.8 µM
- TGI (XF 498 CNS): 40 µM
- TGI (LOX IMVI melanoma): > 100 µM
- TGI (NCI-H522 lung): 33.8 µM
- TGI (U251 CNS): 46.1 µM
- TGI (UACC-257 melanoma): 44 µM
- TGI (DMS 273 small cell lung): > 100 µM
- TGI (DMS 114 small cell lung): 35.7 µM
- TGI (LXFL 529 NSCLC): 31.2 µM
- TGI (SNB-75 CNS): 64 µM
- TGI (HOP-18 NSCLC): > 100 µM
- TGI (IGROV1 ovarian): > 100 µM
- TGI (HCC-2998 colon): > 100 µM
- TGI (HOP-62 NSCLC): > 100 µM
- TGI (SF-295 CNS): > 100 µM
- TGI (SK-MEL-28 melanoma): 79.8 µM
- TGI (OVCAR-5 ovarian): > 100 µM
- TGI (EKVX NSCLC): 80.3 µM
- TGI (HT29 colon): > 100 µM
- TGI (M19-MEL melanoma): 35.8 µM
- TGI (UACC-62 melanoma): 48.1 µM
- TGI (ACHN renal): > 100 µM
- TGI (UO-31 renal): 33.1 µM
- TGI (SNB-78 CNS): 88.8 µM
- TGI (NCI-H460 lung): 57.9 µM
- TGI (SN12C renal): 59.5 µM
- TGI (HCT-116 colon): 92.8 µM
- TGI (SF-268 CNS): 66 µM
- TGI (CAKI-1 renal): 38.4 µM
- TGI (SR leukemia): 58.2 µM
- TGI (COLO 205 colon): 35.7 µM
- TGI (A549 NSCLC): 69 µM
- TGI (HOP-92 NSCLC): 52.2 µM
- TGI (SNB-19 CNS): > 100 µM
- TGI (K-562 leukemia): 52.8 µM
- TGI (NCI-H226 lung): 81.2 µM
- TGI (OVCAR-4 ovarian): > 100 µM
- TGI (SK-OV-3 ovarian): 99 µM
- TGI (NCI-H23 lung): 49.1 µM
- TGI (RPMI-8226 leukemia): 91.6 µM
- TGI (MOLT-4 leukemia): 67 µM
- TGI (TK-10 renal): 57.4 µM
- TGI (SW-620 colon): 30.9 µM
- TGI (SF-539 CNS): 51.2 µM

SMILES: COC(=O)C(CCCCCCCC(C(=O)OC)c1nc2n(c1O)C(=N)N=N2)c1nc2n(c1O)C(=N)N=N2 (configuration not stated)
- TGI (OVCAR-8 ovarian): > 100 µM
- TGI (MALME-3M melanoma): > 100 µM
- TGI (RXF-631 renal): > 100 µM
- TGI (HCT-15 colon): > 100 µM
- TGI (KM12 colon): > 100 µM
- TGI (786-0 renal): > 100 µM
- TGI (M14 melanoma): > 100 µM
- TGI (DLD-1 colon): > 100 µM
- TGI (HL-60(TB) leukemia): > 100 µM
- TGI (A498 renal): > 100 µM
- TGI (SK-MEL-2 melanoma): > 100 µM
- TGI (KM20L2 colon): > 100 µM
- TGI (RXF 393 renal): > 100 µM
- TGI (CCRF-CEM leukemia): > 100 µM
- TGI (SK-MEL-5 melanoma): > 100 µM
- TGI (OVCAR-3 ovarian): > 100 µM
- TGI (XF 498 CNS): > 100 µM
- TGI (LOX IMVI melanoma): > 100 µM
- TGI (NCI-H522 lung): > 100 µM
- TGI (U251 CNS): > 100 µM
- TGI (UACC-257 melanoma): > 100 µM
- TGI (DMS 273 small cell lung): > 100 µM
- TGI (DMS 114 small cell lung): > 100 µM
- TGI (LXFL 529 NSCLC): > 100 µM
- TGI (SNB-75 CNS): > 85.6 µM
- TGI (HOP-18 NSCLC): > 100 µM
- TGI (IGROV1 ovarian): > 100 µM
- TGI (HCC-2998 colon): > 100 µM
- TGI (HOP-62 NSCLC): > 100 µM
- TGI (SF-295 CNS): > 100 µM
- TGI (SK-MEL-28 melanoma): > 100 µM
- TGI (OVCAR-5 ovarian): > 100 µM
- TGI (EKVX NSCLC): > 100 µM
- TGI (HT29 colon): > 100 µM
- TGI (M19-MEL melanoma): > 68.3 µM
- TGI (UACC-62 melanoma): > 100 µM
- TGI (ACHN renal): > 100 µM
- TGI (UO-31 renal): > 100 µM
- TGI (SNB-78 CNS): > 100 µM
- TGI (NCI-H460 lung): > 100 µM
- TGI (SN12C renal): > 100 µM
- TGI (HCT-116 colon): > 100 µM
- TGI (SF-268 CNS): > 100 µM
- TGI (CAKI-1 renal): > 100 µM
- TGI (SR leukemia): > 100 µM
- TGI (COLO 205 colon): > 100 µM
- TGI (A549 NSCLC): > 100 µM
- TGI (HOP-92 NSCLC): > 100 µM
- TGI (SNB-19 CNS): > 100 µM
- TGI (NCI-H226 lung): > 100 µM
- TGI (OVCAR-4 ovarian): > 100 µM
- TGI (SK-OV-3 ovarian): > 100 µM
- TGI (NCI-H23 lung): > 100 µM
- TGI (RPMI-8226 leukemia): > 100 µM
- TGI (MOLT-4 leukemia): > 100 µM
- TGI (TK-10 renal): > 100 µM
- TGI (SW-620 colon): > 100 µM
- TGI (SF-539 CNS): > 100 µM

Reference: PubChem BioAssay (NCI)
